Laboratory results published in publication PMC3436077 (DARU Journal of Pharmaceutical Sciences, 2011).

Legend:
P-glycoprotein (PGP) = test: Apical-to-basal transwell transport across MDCK II cell monolayer; conditions: dog, MDCK, M6G permeability in the presence of cyclosporine, MDCK II cells, cyclosporine (10 µM), PGP inhibitor
[1] = as above; conditions: dog, MDCK
MDCK II cells = test: as above
[2] = mice; cited from earlier work

CN1CC[C@]23c4c5ccc(O)c4O[C@H]2[C@@H](O[C@@H]2O[C@H](C(=O)O)[C@@H](O)[C@H](O)[C@H]2O)C=C[C@H]3[C@H]1C5 [M6G, Morphine-6-glucuronide]
Papp at 100 min (P-glycoprotein (PGP)): 3.16 ± 0.01 ×10⁻⁶ cm/s
Papp at 100 min ([1]; M6G permeability in the presence of d-glucose, d-glucose 5µ M, MDCK II, P < 0.05): 2.06 ± 0.02 ×10⁻⁶ cm/s
Papp at 100 min ([1]; M6G permeability in the presence of digoxin, digoxin 5µ M, MDCK II, P < 0.05): 2.64 ± 0.11 ×10⁻⁶ cm/s
Papp at 100 min ([1]; M6G permeability in the presence of probenecid, probenecid 10µ M, MDCK II, P > 0.05): 2.95 ± 0.06 ×10⁻⁶ cm/s
Papp at 100 min, 100 µg/ml ([1]; Permeability ± SD in the presence of morphine, M6G 100 µg/ml + morphine 61,820 ng/ml, MDCK II): 3.31 ± 0.14 ×10⁻⁶ cm/s
Papp at 100 min, 100 µg/ml ([1]; Permeability ± SD, M6G 100 µg/ml alone, MDCK II): 2.92 ± 0.02 ×10⁻⁶ cm/s
Papp at 100 min ([1]; Permeability, MDCK II cells, A→B, 100 min, M6G 100 µg/ml, sucrose 8,000,000 DPM/ml, N=4): 2.94 ± 0.03 ×10⁻⁶ cm/s
M6G apical to basal movement relative to morphine (times lower) (MDCK II cells; morphine value from earlier paper): 10 times
Morphine in apical and basal chambers (de-glucuronidation of M6G) (MDCK II cells; t= 100 min, sensitive morphine assay): not a significant or detectable morphine
Change of M6G brain uptake in the presence of digoxin [2]: threefold reduction
